This note sets out measurements from patent publication US11053454B2, “Fragrance compositions comprising essential oils and products comprising same for promoting wellness” (THIS WORKS PRODUCTS LIMITED, priority 2018, dated 2021).

The subject of this assay is primary olfactory cortex (piriform cortex). The assay can be described thus: fMRI connectivity analysis with piriform cortex as seed. The assay is classed as in vivo, human. As for the experimental part: The pre-processed data were analyzed with the connectivity toolbox in SPM. The primary olfactory cortex (piriform cortex) was used as a seed and the connectivity from this very first olfactory target area to other areas in the brain was modeled. A statistical threshold of 0.05, FDR corrected, was used.

Like-named read-outs stand apart in the source and are kept apart here.

For the molecule `OCCc1ccccc1` [PEA, Phenylethylalcohol], the “negative connectivity from the piriform cortex” value is “negative connectivity to the posterior cingulate cortex”. Further, the “negative connectivity from the piriform cortex” value (listed as control odor) is “negative connectivity was detected to the left parietal frontal gyrus”. Also, where the note is “threshold 0.05 FDR corrected”, the “overall connectivity: intensity” value was 170 and the “overall connectivity: nodes” value came out at 41 nodes.
